Experiment [1] concerns U251 (human glioblastoma). The experiment can be described thus: In vitro growth inhibition screen (sulphorhodamine B), U251. It counts as cell-based. Conditions: U251 cells, incubated for 48 hours, sulphorhodamine B dye; read-out: GI50 (concentration which inhibits the cell growth by 50%), U251 Human glioblastoma astrocytoma. As for the experimental part: (§1) Each agent was tested over a broad concentration range (ten-fold dilutions starting from ≧100 μM to 10 nM) against 6 human cancer cell lines which was comprised of different tumor types. These are DU145 (prostate carcinoma), HT29 (colorectal adenocarcinoma), LOX (melanoma), MCF7 (breast adenocarcinoma), MCF7ADR (adriamycin resistant breast adenocarcinoma), and U251 (human glioblastoma). A standard compound doxorubicin was tested in each assay as a positive control. The cells were maintained in growing condition in RPMI 1640 medium containing 10% fetal calf serum and incubated at 37° C. under 5% CO2 atmosphere. All cell lines were inoculated onto a series of standard 96-well microtitre plate on day zero, followed by twenty four-hour incubation in the absence of test compound. The inoculation densities in the screen were as per Monk et al., (1991) J. Natl. Cancer Inst., 83, 757-766. All NCEs were dissolved in DMSO and diluted further in culture medium. An aliquot of each dilution was added to the growing cells in 96 well plates and incubated for 48 hours. After incubation, the assay was terminated by adding 50 μL of trichloroacetic acid (TCA) and incubating at 4° C. for 30 min. The precipitated cells were washed and stained with sulphorhodamine B dye for 30 min and the excess dye was washed off with acetic acid. Adsorbed dye was solubilised in Tris base (alkaline pH) and quantitated by measuring the OD at […] in ELISA READER. GI50 (concentration which inhibits the cell growth by 50%) was calculated according to Boyd and Paull, (1995) Drug Dev. Res., 34, 91-109.
On the technique in general: Sulforhodamine B stains cellular protein and so reports cell mass.

The subject of experiment [2] is HT29 (colorectal adenocarcinoma). Description: In vitro growth inhibition screen (sulphorhodamine B), HT29. It counts as cell-based, human. Conditions: HT29 cells, incubated for 48 hours, sulphorhodamine B dye; read-out: GI50 (concentration which inhibits the cell growth by 50%), HT29 Colorectal adenocarcinoma. As for the experimental part: as §1
For experiment [3], the system named is MCF7 (breast adenocarcinoma). Description: In vitro growth inhibition screen (sulphorhodamine B), MCF7. Type of experiment: cell-based, human. Conditions: MCF7 cells, incubated for 48 hours, sulphorhodamine B dye; read-out: GI50 (concentration which inhibits the cell growth by 50%), MCF7 Breast adenocarcinoma. As for the experimental part: as §1
Experiment [4] concerns DU145 (prostate carcinoma). Description: In vitro growth inhibition screen (sulphorhodamine B), DU145. It counts as cell-based, human. Conditions: DU145 cells, incubated for 48 hours, sulphorhodamine B dye; read-out: GI50 (concentration which inhibits the cell growth by 50%), DU145 Prostate carcinoma. As for the experimental part: as §1
Experiment [5] concerns LOX (melanoma). Description: In vitro growth inhibition screen (sulphorhodamine B), LOX. It counts as cell-based, human. Conditions: LOX cells, incubated for 48 hours, sulphorhodamine B dye; read-out: GI50 (concentration which inhibits the cell growth by 50%), LOX Melanoma. The method, then: as §1
Experiment [6] deals with MCF7ADR (adriamycin resistant breast adenocarcinoma). The experiment can be described thus: In vitro growth inhibition screen (sulphorhodamine B), MCF7ADR. Type of experiment: cell-based, human. Conditions: MCF7ADR cells, incubated for 48 hours, sulphorhodamine B dye; read-out: GI50 (concentration which inhibits the cell growth by 50%), MCF7ADR Adriamycin Resistant Breast adenocarcinoma. As for the experimental part: as §1

Take `CCCN1C(=O)[C@H](OCc2ccccc2)[C@@H](OCc2ccccc2)[C@H](OCc2ccccc2)[C@H]1CNC(=O)Nc1ccc(C)cc1` [Compound No. 6, 2,3,4-Tri-O-benzyl-6-N-{[p-tolyl]aminocarbonylamino}-N-propyl-D-gluco-δ-lactam]: the GI50 in experiment [1] came out at 82.3 µM; in experiment [2], 47.2 µM; in experiment [3], 433 µM; in experiment [4], 50.1 µM; in experiment [5] it was 67.4 µM; in experiment [6] it was 110 µM.

For `CCCN1C(=O)[C@H](OCc2ccccc2)[C@@H](OCc2ccccc2)[C@H](OCc2ccccc2)[C@H]1CNC(=O)Nc1ccc(Cl)cc1C(F)(F)F` [Compound No. 7, 2,3,4-Tri-O-benzyl-6-N-{[4-chloro-2-trifluoromethylphenyl]aminocarbonylamino}-N-propyl-D-gluco-δ-lactam], the GI50 in experiment [1] is 63.5 µM; in experiment [2] it was 68.6 µM; in experiment [3] it was over 353 µM; in experiment [4], over 353 µM; in experiment [5] it was 10.8 µM; in experiment [6], 58.4 µM.

Consider `CCCN1C(=O)[C@H](OCc2ccccc2)[C@@H](OCc2ccccc2)[C@H](OCc2ccccc2)[C@H]1CNC(=S)NC(C)C` [Compound No. 8, 2,3,4-Tri-O-benzyl-6-N-{[isopropyl]aminothiocarbonylamino}-N-propyl-D-gluco-δ-lactam], for which the GI50 came out at 2.5 µM in experiment [1]; 9 µM in experiment [2]; 1.3 µM in experiment [3]; 3.4 µM in experiment [4]; 2.2 µM in experiment [5]; 0.6 µM in experiment [6].

With `CCCN1C(=O)[C@H](OCc2ccccc2)[C@@H](OCc2ccccc2)[C@H](OCc2ccccc2)[C@H]1CNC(=S)Nc1ccccc1` [Compound No. 9, 2,3,4-Tri-O-benzyl-6-N-{[phenyl]aminothiocarbonylamino}-N-propyl-D-gluco-δ-lactam], the GI50 came out at 20.2 µM in experiment [1]; 40 µM in experiment [2]; 35.8 µM in experiment [3]; 22.1 µM in experiment [4]; 6.9 µM in experiment [5]; 13.9 µM in experiment [6].

Regarding `CCCN1C(=O)[C@H](OCc2ccccc2)[C@@H](OCc2ccccc2)[C@H](OCc2ccccc2)[C@H]1CNC(=O)Nc1ccccc1` [Compound No. 10, 2,3,4-Tri-O-benzyl-6-N-{[phenyl]aminocarbonylamino}-N-propyl-D-gluco-δ-lactam], the GI50 in experiment [1] is 16.4 µM; in experiment [2], 36.9 µM; in experiment [3] it was 34.7 µM; in experiment [4], 39.3 µM; in experiment [5] it was 12.5 µM; in experiment [6], 16.7 µM.

For `CCCN1C(=O)[C@H](OCc2ccccc2)[C@@H](OCc2ccccc2)[C@H](OCc2ccccc2)[C@H]1CNC(=O)Nc1ccc(F)cc1` [Compound No. 11, 2,3,4-Tri-O-benzyl-6-N-{[p-fluorophenyl]aminocarbonylamino}-N-propyl-D-gluco-δ-lactam], the GI50 in experiment [1] is 3.2 µM; in experiment [2] it was 2.7 µM; in experiment [3], 2.4 µM; in experiment [4], 2.7 µM; in experiment [5] it was 2.1 µM; in experiment [6], 2.6 µM.

On to `CCCN1C(=O)C(OCc2ccccc2)C(OCc2ccccc2)C(OCc2ccccc2)C1CNC(=O)NS(=O)(=O)c1ccc(Cl)cc1` [Compound No. 12, 2,3,4-Tri-O-benzyl-6-N-{[p-chlorophenylsulfonyl]aminocarbonylamino}-N-propyl-D-gluco-δ-lactam], for which the GI50 in experiment [1] is 61.8 µM; in experiment [2], 29.3 µM; in experiment [3], 88.2 µM; in experiment [4] it was 48.7 µM; in experiment [5] it was 41.6 µM; in experiment [6], 35 µM.

On to `CCCN1C(=O)[C@H](OCc2ccccc2)[C@@H](OCc2ccccc2)[C@H](OCc2ccccc2)[C@H]1CNC(=O)Nc1cccc(Cl)c1` [Compound No. 13, 2,3,4-Tri-O-benzyl-6-N-{[3-chlorophenyl]aminocarbonylamino}-N-propyl-D-gluco-δ-lactam], for which the GI50 in experiment [1] was 6.4 µM; in experiment [2], 3.6 µM; in experiment [3] it was 6.4 µM; in experiment [4], 4.2 µM; in experiment [5], 3.1 µM; in experiment [6], 4.6 µM.

Turning to `CCCN1C(=O)[C@H](OCc2ccccc2)[C@@H](OCc2ccccc2)[C@H](OCc2ccccc2)[C@H]1CNC(=O)Nc1cccc(C(C)=O)c1` [Compound No. 14, 2,3,4-Tri-O-benzyl-6-N-{[3-acetylphenyl]aminocarbonylamino}-N-propyl-D-gluco-δ-lactam], the GI50 is 15 µM in experiment [1]; 30.4 µM in experiment [2]; 35.7 µM in experiment [3]; 21 µM in experiment [4]; 7.6 µM in experiment [5]; 6.7 µM in experiment [6].

In the case of `CCCN1C(=O)C(OCc2ccccc2)C(OCc2ccccc2)C(OCc2ccccc2)C1CNC(=O)Nc1cc(Cl)ccc1OC` [Compound No. 15, 2,3,4-Tri-O-benzyl-6-N-{[3-chloro-6-methoxyphenyl]aminocarbonylamino}-N-propyl-D-gluco-δ-lactam], the GI50 was determined as 40.8 µM in experiment [1]; 41.9 µM in experiment [2]; 29.9 µM in experiment [3]; 44.4 µM in experiment [4]; 57.2 µM in experiment [5]; 53.8 µM in experiment [6].

With `CCCN1C(=O)[C@H](OCc2ccccc2)[C@@H](OCc2ccccc2)[C@H](OCc2ccccc2)[C@H]1CNC(=O)Nc1ccc(F)cc1F` [Compound No. 16, 2,3,4-Tri-O-benzyl-6-N-{[2,4-difluorophenyl]aminocarbonylamino}-N-propyl-D-gluco-δ-lactam], the GI50 in experiment [1] was found to be 22.9 µM; in experiment [2], 58.2 µM; in experiment [3], 55.6 µM; in experiment [4], 59.7 µM; in experiment [5], 53.3 µM; in experiment [6] it was 74.1 µM.

Consider `CCCN1C(=O)[C@H](OCc2ccccc2)[C@@H](OCc2ccccc2)[C@H](OCc2ccccc2)[C@H]1CNC(=O)Nc1c(Cl)cc(Cl)cc1Cl` [Compound No. 17, 2,3,4-Tri-O-benzyl-6-N-{[2,4,6-trichlorophenyl]aminocarbonylamino}-N-propyl-D-gluco-δ-lactam], for which the GI50 was 206 µM in experiment [1]; 213 µM in experiment [2]; over 528 µM in experiment [3]; 82.2 µM in experiment [4]; 170 µM in experiment [5]; 348 µM in experiment [6].

In the case of `CCCN1C(=O)[C@H](OCc2ccccc2)[C@@H](OCc2ccccc2)[C@H](OCc2ccccc2)[C@H]1CNC(=O)Nc1ccc(Cl)c(Cl)c1` [Compound No. 18, 2,3,4-Tri-O-benzyl-6-N-{[3,4-dichlorophenyl]aminocarbonylamino}-N-propyl-D-gluco-δ-lactam], the GI50 in experiment [1] is 2.6 µM; in experiment [2], 2.2 µM; in experiment [3] it was 2 µM; in experiment [4], 2.5 µM; in experiment [5], 2 µM; in experiment [6], 2.9 µM.

Take `CCCN1C(=O)C(OCc2ccccc2)C(OCc2ccccc2)C(OCc2ccccc2)C1CNC(=O)Nc1ccc(Cl)cc1Cl` [Compound No. 19, 2,3,4-Tri-O-benzyl-6-N-{[2,4-dichlorophenyl]aminocarbonylamino}-N-propyl-D-gluco-δ-lactam]: the GI50 in experiment [1] is over 592 µM; in experiment [2] it was over 592 µM; in experiment [3] it was over 592 µM; in experiment [4], over 592 µM; in experiment [5] it was 81.8 µM; in experiment [6] it was over 592 µM.

As for `CCCN1C(=O)C(OCc2ccccc2)C(OCc2ccccc2)C(OCc2ccccc2)C1CNC(=O)NC(C)C` [Compound No. 20, 2,3,4-Tri-O-benzyl-6-N-{[isopropyl]aminocarbonylamino}-N-propyl-D-gluco-δ-lactam], the GI50 in experiment [1] amounted to 3.3 µM; in experiment [2], 2.6 µM; in experiment [3], 4.1 µM; in experiment [4], 15.3 µM; in experiment [5], 5.9 µM; in experiment [6], 5.5 µM.

Turning to `CCCN1C(=O)[C@H](OCc2ccccc2)[C@@H](OCc2ccccc2)[C@H](OCc2ccccc2)[C@H]1CNC(=S)Nc1ccc(Cl)cc1` [Compound No. 21, 2,3,4-Tri-O-benzyl-6-N-{[4-chlorophenyl]aminothiocarbonylamino}-N-propyl-D-gluco-δ-lactam], the GI50 was determined as 3.6 µM in experiment [1]; 2 µM in experiment [2]; 2.4 µM in experiment [3]; 6.5 µM in experiment [4]; 2.9 µM in experiment [5]; 3.4 µM in experiment [6].

The values above are taken from US20060241114A1, “Derivatives of azasugars as anticancer agents” (priority 2003, published 2006).
